Laboratory results: BigSolDB 2.1

CN1CCN(C2=Nc3cc(Cl)ccc3Nc3ccccc32)CC1
solubility (mole fraction)
Details | 278.15 K | 283.15 K | 288.15 K | 293.15 K | 298.15 K | 303.15 K | 308.15 K | 313.15 K | 318.15 K | 323.15 K
in 2-ethoxyethanol | 0.0358 | 0.0391 | 0.0415 | 0.0442 | 0.0476 | 0.0499 | 0.053 | 0.0566 | 0.0612 | 0.0666
in 2-methoxyethanol | 0.0326 | 0.0349 | 0.0366 | 0.0393 | 0.0422 | 0.0451 | 0.048 | 0.0508 | 0.0546 | 0.0596
in 2-propoxyethanol | 0.042 | 0.0443 | 0.0463 | 0.0499 | 0.0521 | 0.0548 | 0.0581 | 0.0612 | 0.0637 | 0.0679
in ethanol | 0.00466 | 0.00535 | 0.00581 | 0.0064 | 0.0072 | 0.0081 | 0.00917 | 0.0105 | 0.012 | 0.0134
in ethyl acetate | 0.00895 | 0.01 | 0.0114 | 0.0128 | 0.0146 | 0.016 | 0.0181 | 0.0203 | 0.0233 | 0.0265
in methyl acetate | 0.00616 | 0.00707 | 0.00797 | 0.0094 | 0.0108 | 0.0124 | 0.0142 | 0.0164 | 0.0188 | 0.022
in n-butanol | 0.00644 | 0.00761 | 0.00853 | 0.00972 | 0.0112 | 0.0129 | 0.0145 | 0.0164 | 0.0192 | 0.0217
in n-butyl acetate | 0.0121 | 0.0136 | 0.0147 | 0.0164 | 0.0182 | 0.02 | 0.0228 | 0.0255 | 0.0276 | 0.0314
in n-pentanol | 0.00737 | 0.00904 | 0.0107 | 0.0121 | 0.0135 | 0.0152 | 0.0177 | 0.0203 | 0.0234 | 0.0264
in n-pentyl acetate | 0.0131 | 0.0143 | 0.0162 | 0.0176 | 0.0198 | 0.0221 | 0.024 | 0.0269 | 0.0298 | 0.0334
in n-propanol | 0.00577 | 0.00645 | 0.00734 | 0.0083 | 0.00928 | 0.0109 | 0.0123 | 0.0148 | 0.0168 | 0.019
in n-propyl acetate | 0.0114 | 0.0128 | 0.014 | 0.0157 | 0.0174 | 0.0194 | 0.0219 | 0.0246 | 0.027 | 0.0305
